Data published in patent publication US20240317775A1, “H4 Antagonist Compounds” (HEPTARES THERAPEUTICS LIMITED, priority 2020, published 2024).

Key:
Type in all cases: cell-based
human H4 receptor [1] = target: T1, human H4 receptor (Homo sapiens, UniProt Q9H3N8); assay: H4 Antagonist Functional Dynamic Mass Redistribution Assay; settings: HEKf cells expressing human H4 receptor, functional antagonist pKb by Cheng-Prusoff vs histamine EC80; for Kb: read-out: Human H4 DMR fpKb (converted)
T1 construct: expressed in transfected cells; host or cells: HEKf cells infected with baculovirus
Method: HEKf cells were infected using baculovirus expressing the human H4 receptor, plated into fibronectin-coated EPIC plates at a density of 10,000 cells/well and incubated overnight at 37° C. The medium on cells was changed to 30 μL HBSS with 20 mM HEPES per well and 30 nL DMSO were added per well by LabCyte ECHO acoustic dispensing. Following 2 h equilibration at room temperature, 30 nL of H4 ligands prepared in DMSO were stamped by LabCyte ECHO acoustic dispensing into seeded EPIC plates and cellular dynamic mass redistribution was monitored using a Corning EPIC plate reader. Following 45 min measurement, 30 nL/well of histamine EC80 was added and monitored to obtain antagonist assay data. Maximum baseline-corrected responses in pm were used to generate concentration response curves. EC50 values were generated using a 4-parameter logistical fit equation to quantify agonist potencies. Functional antagonist affinity values were generated using the Cheng-Prusoff equation to calculate a pKb value using the antagonist assay data.

hERG [2] = target: T2, hERG (Homo sapiens, UniProt Q12809); assay: hERG single-concentration assay (QPatch automated patch clamp, CHO cells, 30 μM); settings: CHO cells stably expressing hERG
Text: (§1) Series resistance (4-15 MΩ) was compensated by >80%.

human H4 receptor [3] = target: T1, human H4 receptor; assay: H4 Antagonist Functional cAMP Gi Assay; settings: HEKf cells expressing human H4 receptor, functional antagonist pKb by Cheng-Prusoff vs histamine; for Kb: read-out: Human H4 cAMP fpKb (converted)
Method: HEKf cells were infected overnight using baculovirus expressing the human H4 receptor, then centrifuged at 1,200 rpm for 5 min, frozen in cell freezing medium (Sigma) and stored at −150° C. On the day of assay, the cells were thawed and resuspended in HBSS with 500 nM IBMX to achieve a density of 1,500 cells/well. H4 ligands were prepared in DMSO and stamped by LabCyte ECHO acoustic dispensing at 25 nL in low volume plates. 10 μL/well cells were plated in the presence of 1 μM forskolin, subjected to centrifugation at 1,200 rpm for 1 min and incubated for 30 min prior to addition of Cisbio cAMP detection reagents to a total volume 20 μL/well. […] Following detection reagent addition and shaking at room temperature for 60 min, cAMP accumulation was measured using HTRF on a PheraStar plate reader. EC50 values were generated using a 4-parameter logistical fit equation to quantify agonist potencies. Functional antagonist affinity values were generated using the Cheng-Prusoff equation to calculate a pKb value using the antagonist assay data.

hERG [4] = target: T2, hERG; assay: hERG pIC50 assay (QPatch automated patch clamp, CHO cells, 1, 3, 10 and 30 μM); settings: CHO cells expressing hERG, 1-30 μM, ≤4.0 = fails to reach >40% block at 30 μM
Text: as §1

T1 sequence (Q9H3N8 whole entry): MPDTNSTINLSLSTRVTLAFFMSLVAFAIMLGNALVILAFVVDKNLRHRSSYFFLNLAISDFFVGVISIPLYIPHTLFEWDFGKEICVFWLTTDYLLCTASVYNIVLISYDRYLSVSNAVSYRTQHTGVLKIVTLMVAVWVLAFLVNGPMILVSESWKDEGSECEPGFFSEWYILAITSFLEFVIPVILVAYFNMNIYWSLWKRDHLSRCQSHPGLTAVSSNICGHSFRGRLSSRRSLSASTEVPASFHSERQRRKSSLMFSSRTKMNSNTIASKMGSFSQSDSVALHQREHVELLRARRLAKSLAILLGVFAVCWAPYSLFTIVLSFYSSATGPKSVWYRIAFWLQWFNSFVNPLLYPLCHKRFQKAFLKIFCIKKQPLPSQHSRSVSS
T2 sequence (Q12809 whole entry): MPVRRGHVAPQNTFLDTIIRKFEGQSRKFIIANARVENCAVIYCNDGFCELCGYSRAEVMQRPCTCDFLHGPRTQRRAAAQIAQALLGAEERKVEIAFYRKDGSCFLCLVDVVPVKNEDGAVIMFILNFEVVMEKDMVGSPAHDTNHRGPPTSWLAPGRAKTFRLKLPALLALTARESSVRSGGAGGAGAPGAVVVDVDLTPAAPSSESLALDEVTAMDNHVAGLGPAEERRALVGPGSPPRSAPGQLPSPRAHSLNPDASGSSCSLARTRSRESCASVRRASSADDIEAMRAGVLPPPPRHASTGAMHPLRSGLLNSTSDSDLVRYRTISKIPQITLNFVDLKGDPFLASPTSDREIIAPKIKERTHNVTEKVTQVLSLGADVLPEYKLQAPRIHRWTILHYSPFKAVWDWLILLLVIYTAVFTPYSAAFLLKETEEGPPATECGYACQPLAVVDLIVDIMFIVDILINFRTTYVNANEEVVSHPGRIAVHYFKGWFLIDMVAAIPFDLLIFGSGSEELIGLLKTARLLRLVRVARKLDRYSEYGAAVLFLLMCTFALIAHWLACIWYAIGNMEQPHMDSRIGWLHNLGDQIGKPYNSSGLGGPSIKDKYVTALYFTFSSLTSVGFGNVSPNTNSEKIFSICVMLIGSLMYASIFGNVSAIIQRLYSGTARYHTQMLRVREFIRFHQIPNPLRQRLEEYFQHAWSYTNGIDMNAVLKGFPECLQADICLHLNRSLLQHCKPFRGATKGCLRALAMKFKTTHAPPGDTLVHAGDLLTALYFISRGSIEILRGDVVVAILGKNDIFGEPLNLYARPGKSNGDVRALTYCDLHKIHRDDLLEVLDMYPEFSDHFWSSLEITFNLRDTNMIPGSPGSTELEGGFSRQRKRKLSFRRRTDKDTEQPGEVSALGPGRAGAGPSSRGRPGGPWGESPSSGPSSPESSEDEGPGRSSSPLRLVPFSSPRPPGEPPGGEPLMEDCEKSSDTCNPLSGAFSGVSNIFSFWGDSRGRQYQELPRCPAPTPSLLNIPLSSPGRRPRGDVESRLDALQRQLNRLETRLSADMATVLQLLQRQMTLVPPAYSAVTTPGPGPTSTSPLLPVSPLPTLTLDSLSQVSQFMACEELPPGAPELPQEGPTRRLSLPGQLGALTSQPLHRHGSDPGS

Row | Structure (SMILES) | Kb (human H4 receptor [1]) | inhibition at 30 µM (hERG [2]) | Kb (human H4 receptor [3]) | other results
1 | CN[C@@H]1CCN(c2nc(N)nc3c2OCC2CCCC2N3)C1 (stereo partly drawn) [Example 17-1, 4-[(3R)-3-(methylamino)pyrrolidin-1-yl]-6a,7,8,9,9a, 10-hexahydro-6H-cyclopenta[e]pyrimido[5,4-b][1,4]oxazepin-2-amine] | 12.6 nM | 29% |  | 
2 | CNC1CN(c2nc(N)nc3c2OC[C@@H](C(C)C)N3)C1 [Example 3-2, (R)-7-Isopropyl-4-(3-(methylamino)azetidin-1-yl)-7,8-dihydro-6H-pyrimido[5,4-b][1,4]oxazin-2-amine] |  | 26% | 1.26 nM | IC50 (hERG [4]): ≥ 100000 nM
3 | CCC1(C)CCOc2c(ncnc2N2CC[C@@H](NC)C2)N1 (stereo partly drawn) [Example 17-9, (3R)-1-(8-ethyl-8-methyl-6,7,8,9-tetrahydropyrimido[5,4-b][1,4]oxazepin-4-yl)-N-methylpyrrolidin-3-amine] | 39.8 nM |  |  | 
4 | Nc1nc2c(c(N3CC[C@@H](N)C3)n1)OCC1CCCC1N2 (stereo partly drawn) [Example 17-2, 4-[(3R)-3-aminopyrrolidin-1-yl]-6a, 7,8,9,9a, 10-hexahydro-6H-cyclopenta[e]pyrimido[5,4-b][1,4]oxazepin-2-amine] | 20 nM |  |  | 
5 | CN[C@@H]1CCN(c2nc(N)nc3c2OCC(C)(C)CN3)C1 [Example 17-5, 7,7-dimethyl-4-[(3R)-3-(methylamino)pyrrolidin-1-yl]-6,7,8,9-tetrahydropyrimido[5,4-b][1,4]oxazepin-2-amine] | 200 nM |  |  | 
6 | CN[C@@H]1CCN(c2ncnc3c2OCC[C@@H](C(C)C)N3)C1 [Example 14-1, (R)-1-((S)-8-Isopropyl-6,7,8,9-tetrahydropyrimido[5,4-b][1,4]oxazepin-4-yl)-N-methylpyrrolidin-3-amine] | 0.794 nM | 41% | 3.16 nM | 
7 | CN[C@@H]1CCN(c2nc(N)nc3c2OCC2(CCC2)N3)C1 [Example 17-4, 4′-[(3R)-3-(methylamino)pyrrolidin-1-yl]-6′H,8′H-spiro[cyclobutane-1,7′-pyrimido[5,4-b][1,4]oxazin]-2′-amine] | 2 nM |  |  | 
8 | CN[C@@H]1CCN(c2nc(N)nc3c2OCC2(CC(F)(F)C2)N3)C1 [Example 17-15, 3,3-difluoro-4′-[(3R)-3-(methylamino)pyrrolidin-1-yl]-6′H,8′H-spiro[cyclobutane-1,7′-pyrimido[5,4-b][1,4]oxazin]-2′-amine] | 7.94 nM |  |  | 
9 | CC(C)[C@@H]1COc2c(nc(N)nc2N2CC[C@@H](N)C2)N1 [Example 2-2, (R)-4-((R)-3-Aminopyrrolidin-1-yl)-7-isopropyl-7,8-dihydro-6H-pyrimido[5,4-b][1,4]oxazin-2-amine] |  |  | 0.631 nM | IC50 (hERG [4]): ≥ 100000 nM
10 | CN1CCN(C(=O)c2cc3cc(Cl)ccc3[nH]2)CC1 [JNJ-7777120, reference compound] |  |  |  | IC50 (hERG [4]): 3980 nM
11 | CC(C)c1cc(N2CC[C@@H](N)C2)nc(N)n1 [JNJ-39758979, reference compound] |  |  |  | Human H4 DMR fpKb (human H4 receptor [1]): 8.5; Human H4 cAMP fpKb (human H4 receptor [3]): 8.1
12 | CN[C@@H]1CCN(c2nc(N)nc3c2OCC(C(C)C)CN3)C1 (stereo partly drawn) [Example 11-9, 7-Isopropyl-4-((R)-3-(methylamino)pyrrolidin-1-yl)-6,7,8,9-tetrahydropyrimido[5,4-b][1,4]oxazepin-2-amine] | 50.1 nM |  | 63.1 nM | 
13 | CC[C@@H]1CCOc2c(nc(N)nc2N2CC[C@@H](N)C2)N1 [Example 17-7, 4-[(3R)-3-aminopyrrolidin-1-yl]-8-ethyl-6,7,8,9-tetrahydropyrimido[5,4-b][1,4]oxazepin-2-amine] | 10 nM |  |  | 
14 | CCC1(C)CCOc2c(nc(N)nc2N2CC[C@@H](NC)C2)N1 (stereo partly drawn) [Example 17-10, 8-ethyl-8-methyl-4-[(3R)-3-(methylamino)pyrrolidin-1-yl]-6,7,8,9-tetrahydropyrimido[5,4-b][1,4]oxazepin-2-amine] | 10 nM |  |  | 
15 | CC[C@@H]1CCOc2c(nc(N)nc2N2CC(NC)C2)N1 [Example 17-6, 8-ethyl-4-[3-(methylamino)azetidin-1-yl]-6,7,8,9-tetrahydropyrimido[5,4-b][1,4]oxazepin-2-amine] | 10 nM |  |  | 
16 | CN[C@@H]1CCN(c2nc(N)nc3c2OCC2(CCCC2)N3)C1 [Example 17-11, 4′-[(3R)-3-(methylamino)pyrrolidin-1-yl]-6′H,8′H-spiro[cyclopentane-1,7′-pyrimido[5,4-b][1,4]oxazin]-2′-amine] | 7.94 nM |  |  | 
17 | CN[C@@H]1CCN(c2ncnc3c2OCC2(CC(F)(F)C2)N3)C1 [Example 17-13, (3R)-1-(3,3-difluoro-6′H,8′H-spiro[cyclobutane-1,7′-pyrimido[5,4-b][1,4]oxazin]-4′-yl)-N-methylpyrrolidin-3-amine] | 3.98 nM |  |  | 
18 | CN[C@@H]1CCN(c2nc(N)nc3c2OC[C@H](C(C)C)N3)C1 [Example 1-5, (S)-7-Isopropyl-4-((R)-3-(methylamino)pyrrolidin-1-yl)-7,8-dihydro-6H-pyrimido[5,4-b][1,4]oxazin-2-amine] |  | 68% | 25.1 nM | 
19 | CN[C@@H]1CCN(c2ncnc3c2OCC2(CCCC2)N3)C1 [Example 17-12, (3R)—N-methyl-1-(6′H,8′H-spiro[cyclopentane-1,7′-pyrimido[5,4-b][1,4]oxazin]-4′-yl)pyrrolidin-3-amine] | 7.94 nM |  |  | 
20 | CN[C@@H]1CCN(c2ncnc3c2OCC(COC)N3)C1 (stereo partly drawn) [Example 7-3, (3R)-1-(7-(Methoxymethyl)-7,8-dihydro-6H-pyrimido[5,4-b][1,4]oxazin-4-yl)-N-methylpyrrolidin-3-amine] |  | 48% | 316 nM | 
21 | CN[C@@H]1CCN(c2nc(N)nc3c2OCC[C@H](C)N3)C1 [Example 11-3, (S)-8-Methyl-4-((R)-3-(methylamino)pyrrolidin-1-yl)-6,7,8,9-tetrahydropyrimido[5,4-b][1,4]oxazepin-2-amine] | 10 nM |  | 31.6 nM | 
22 | CC[C@@H]1COc2c(nc(N)nc2N2CC[C@@H](NC)C2)N1 [Example 1-3, (R)-7-Ethyl-4-((R)-3-(methylamino)pyrrolidin-1-yl)-7,8-dihydro-6H-pyrimido[5,4-b][1,4]oxazin-2-amine] |  | 18% | 1 nM | 
23 | CN[C@@H]1CCN(c2ncnc3c2OC[C@@H](C(C)C)N3)C1 [Example 7-1, (R)-1-((R)-7-Isopropyl-7,8-dihydro-6H-pyrimido[5,4-b][1,4]oxazin-4-yl)-N-methylpyrrolidin-3-amine] |  | 31% | 0.631 nM | 
24 | CNC1CN(c2nc(N)nc3c2OCC2CCCC2N3)C1 (centres unmarked) [Example 17-3, 4-[3-(methylamino)azetidin-1-yl]-6a, 7,8,9,9a, 10-hexahydro-6H-cyclopenta[e]pyrimido[5,4-b][1,4]oxazepin-2-amine] | 31.6 nM | 42% |  | 
25 | CN[C@@H]1CCN(c2nc(N)nc3c2OCC[C@@H](C)N3)C1 [Example 11-2, (R)-8-Methyl-4-((R)-3-(methylamino)pyrrolidin-1-yl)-6,7,8,9-tetrahydropyrimido[5,4-b][1,4]oxazepin-2-amine] | 5.01 nM | 13% | 2.51 nM | 
26 | CN[C@@H]1CCN(c2nc(N)nc3c2OCCN3)C1 [Example 1-1, (R)-4-(3-(Methylamino)pyrrolidin-1-yl)-7,8-dihydro-6H-pyrimido[5,4-b][1,4]oxazin-2-amine] |  | 25% | 501 nM | 
27 | CC[C@@H]1CCOc2c(nc(N)nc2N2C[C@H]3CCCN[C@H]3C2)N1 [Example 17-8, 8-ethyl-4-[(4aR,7aR)-octahydro-6H-pyrrolo[3,4-b]pyridin-6-yl]-6,7,8,9-tetrahydropyrimido[5,4-b][1,4]oxazepin-2-amine] | 15.8 nM |  |  | 
28 | CC[C@]1(C)COc2c(nc(N)nc2N2CC[C@@H](NC)C2)N1 [Example 17-14, 7-ethyl-7-methyl-4-[(3R)-3-(methylamino)pyrrolidin-1-yl]-7,8-dihydro-6H-pyrimido[5,4-b][1,4]oxazin-2-amine] | 7.94 nM |  |  | 
29 | CC(C)[C@@H]1COc2c(nc(N)nc2N2CCN(C)CC2)N1 [Example 5-1, (R)-7-Isopropyl-4-(4-methylpiperazin-1-yl)-7,8-dihydro-6H-pyrimido[5,4-b][1,4]oxazin-2-amine] |  | 44% | 3.16 nM | 
